Source: patent publication US9096601B2 (CSPC Zhongqi Pharmaceutical Technology (Shijiazhuang) Co., …, priority 2010, dated 2015)

How the values were obtained:
EGFR L858R mutant type = EGFR L858R mutant type (Homo sapiens (Human), UniProt P00533, L858R); assay: Kinase inhibitory activity, isotopic labeling (γ-33P-ATP); format: biochemical; conditions: ATP 200 μM (Km)
Procedure: (§1) The object of this assay was to test the inventive compounds for the kinase inhibitory activity in vitro. In this assay, an isotopic labeling method was used to label the γ phosphate group on ATP. […] Staurosporine was used as a reference molecule (or referred to as a positive control). […] The IC50 value can be obtained by the calculation of the inhibitory rates at a series of different concentrations of the tested compounds.
(§2) To a reaction tube were successively added the buffer solution (8 mM MOPS, pH 7.0, 0.2 mM EDTA, 10 mM MnCl2), the kinase to be tested (5-10 mU) (EGFR/ALK/BTK/c-KIT/c-SRC/MET/PDGFRα/VEGFR2), the substrate for the kinase to be tested (a reference material), 10 mM of the solution of magnesium acetate and γ-^33 P-ATP, and different concentrations of the tested compounds. […] The reaction was terminated with […] of the 3% phosphate buffer solution. 10 μL of the reaction liquid was titrated on the Filtermat A membrane. The membrane was washed with 75 mM of the phosphate solution thrice (5 minutes each time), and then with methanol once, and finally dried. The membrane was subjected to a scintillation counting. The value of the scintillation counting reflected the phosphorylation level of the substrate and therefore could characterize the inhibition of the kinase activity.

[1] = molecular target: EGFR L858R/T790M double mutant type (Homo sapiens (Human), UniProt P00533, L858R/T790M); assay: as above; format: biochemical; conditions: ATP 45 μM (Km)
Procedure: as §1, §2

EGFR wild type = EGFR wild type (Homo sapiens (Human), UniProt P00533); assay: as above; format: biochemical; conditions: ATP 10 μM (Km)
Procedure: as §1, §2

MET = MET (Homo sapiens (Human), UniProt P08581); assay: as above; format: biochemical; conditions: compound at 10 μM
Procedure: (§3) The object of this assay was to test the inventive compounds for the kinase inhibitory activity in vitro. In this assay, an isotopic labeling method was used to label the γ phosphate group on ATP. EGFR (including wild type, L858R mutant type and L858R/T790M double mutant type), VEGFR2, ALK, BTK, c-KIT, c-SRC, MET, PDGFRα and FLT3 kinases were tested in vitro for the activity inhibition. Staurosporine was used as a reference molecule (or referred to as a positive control). […] The IC50 value can be obtained by the calculation of the inhibitory rates at a series of different concentrations of the tested compounds.
as §2

c-KIT = c-KIT (Homo sapiens (Human), UniProt P10721); assay: as above; format: biochemical; conditions: compound at 10 μM
Procedure: as §3, §2

[2] = test system: acute myelogenous leukemia cell strain MV4-11; assay: In-vitro tumor cell proliferation inhibition, MTT; format: cell-based, human; conditions: 72 hours
[3] = test system: breast carcinoma cell strain BT474; assay: In-vitro tumor cell proliferation inhibition, MTT; format: cell-based, human; conditions: 72 hours
Method in brief: (§4)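 HCC827 and BT474 grew in RPMI-1640, A431 and SW620 in DMEM (10% FBS), seeded at 6×10^4 (HCC827) or 1-2×10^4 cells/ml overnight. Graded compound doses were applied for 72 h at 37 °C in triplicate, then MTT was added for 2-4 h and A570 was read. IC50 or inhibitory rate was derived versus untreated control.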

[4] = test system: breast carcinoma cell strain MDA-MB-468; assay: In-vitro tumor cell proliferation inhibition, MTT; format: cell-based, human; conditions: 72 hours
[5] = test system: chronic granulocytic leukemia cell strain K562; assay: In-vitro tumor cell proliferation inhibition, MTT; format: cell-based, human; conditions: 72 hours
[6] = test system: colon cancer cell strain HCT116; assay: In-vitro tumor cell proliferation inhibition, MTT; format: cell-based, human; conditions: 72 hours
[7] = test system: colon cancer cell strain SW480; assay: In-vitro tumor cell proliferation inhibition, MTT; format: cell-based, human; conditions: 72 hours
[8] = test system: colon cancer cell strain SW620; assay: In-vitro tumor cell proliferation inhibition, MTT; format: cell-based, human; conditions: 72 hours
Method in brief: as §4

[9] = test system: gastric cancer cell strain MK-45; assay: In-vitro tumor cell proliferation inhibition, MTT; format: cell-based, human; conditions: 72 hours, read-out: MK45 (IC50)
[10] = test system: liver cancer cell strain Hep G2; assay: In-vitro tumor cell proliferation inhibition, MTT; format: cell-based, human; conditions: 72 hours, read-out: HEPG2 (IC50)
[11] = test system: malignant melanoma cell strain A375; assay: In-vitro tumor cell proliferation inhibition, MTT; format: cell-based, human; conditions: 72 hours
[12] = test system: squamous cell carcinoma cell strain A431; assay: In-vitro tumor cell proliferation inhibition, MTT; format: cell-based, human; conditions: 72 hours
Method in brief: as §4

EGFR L858R/T790M double mutant type, sequence (P00533 25-1210 T790M/L858R): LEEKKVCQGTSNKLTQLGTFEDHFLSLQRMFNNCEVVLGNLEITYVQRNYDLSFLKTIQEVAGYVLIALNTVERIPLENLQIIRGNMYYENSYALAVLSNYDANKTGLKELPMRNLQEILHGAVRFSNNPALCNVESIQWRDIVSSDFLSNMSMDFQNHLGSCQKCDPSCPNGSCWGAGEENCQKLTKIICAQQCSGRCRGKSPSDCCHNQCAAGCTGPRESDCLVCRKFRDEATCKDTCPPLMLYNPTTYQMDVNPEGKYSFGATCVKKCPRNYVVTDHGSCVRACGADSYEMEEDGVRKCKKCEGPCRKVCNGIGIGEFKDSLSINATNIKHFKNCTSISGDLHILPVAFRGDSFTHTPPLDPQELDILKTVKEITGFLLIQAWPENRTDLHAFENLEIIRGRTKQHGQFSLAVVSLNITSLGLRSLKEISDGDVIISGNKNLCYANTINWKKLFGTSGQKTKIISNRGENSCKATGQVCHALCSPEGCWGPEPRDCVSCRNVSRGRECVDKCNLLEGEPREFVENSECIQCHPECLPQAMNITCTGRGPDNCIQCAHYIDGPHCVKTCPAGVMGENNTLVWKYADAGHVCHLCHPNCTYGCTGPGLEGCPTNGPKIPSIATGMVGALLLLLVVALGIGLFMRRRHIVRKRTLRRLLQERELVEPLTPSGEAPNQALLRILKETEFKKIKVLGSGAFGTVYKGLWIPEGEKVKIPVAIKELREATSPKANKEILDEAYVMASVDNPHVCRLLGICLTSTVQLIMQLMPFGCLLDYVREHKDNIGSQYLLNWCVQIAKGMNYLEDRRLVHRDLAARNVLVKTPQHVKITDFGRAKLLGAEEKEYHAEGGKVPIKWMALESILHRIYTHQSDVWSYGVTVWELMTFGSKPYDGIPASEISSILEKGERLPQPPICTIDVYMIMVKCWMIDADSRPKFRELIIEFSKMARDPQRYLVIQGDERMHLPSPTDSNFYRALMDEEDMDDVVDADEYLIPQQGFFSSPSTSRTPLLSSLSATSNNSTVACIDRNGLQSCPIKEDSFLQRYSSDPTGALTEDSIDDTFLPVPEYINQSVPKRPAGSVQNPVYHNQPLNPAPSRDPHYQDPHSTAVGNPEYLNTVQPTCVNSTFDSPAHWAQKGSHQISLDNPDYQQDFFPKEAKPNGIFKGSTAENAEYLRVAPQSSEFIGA
c-KIT, sequence (P10721 26-976): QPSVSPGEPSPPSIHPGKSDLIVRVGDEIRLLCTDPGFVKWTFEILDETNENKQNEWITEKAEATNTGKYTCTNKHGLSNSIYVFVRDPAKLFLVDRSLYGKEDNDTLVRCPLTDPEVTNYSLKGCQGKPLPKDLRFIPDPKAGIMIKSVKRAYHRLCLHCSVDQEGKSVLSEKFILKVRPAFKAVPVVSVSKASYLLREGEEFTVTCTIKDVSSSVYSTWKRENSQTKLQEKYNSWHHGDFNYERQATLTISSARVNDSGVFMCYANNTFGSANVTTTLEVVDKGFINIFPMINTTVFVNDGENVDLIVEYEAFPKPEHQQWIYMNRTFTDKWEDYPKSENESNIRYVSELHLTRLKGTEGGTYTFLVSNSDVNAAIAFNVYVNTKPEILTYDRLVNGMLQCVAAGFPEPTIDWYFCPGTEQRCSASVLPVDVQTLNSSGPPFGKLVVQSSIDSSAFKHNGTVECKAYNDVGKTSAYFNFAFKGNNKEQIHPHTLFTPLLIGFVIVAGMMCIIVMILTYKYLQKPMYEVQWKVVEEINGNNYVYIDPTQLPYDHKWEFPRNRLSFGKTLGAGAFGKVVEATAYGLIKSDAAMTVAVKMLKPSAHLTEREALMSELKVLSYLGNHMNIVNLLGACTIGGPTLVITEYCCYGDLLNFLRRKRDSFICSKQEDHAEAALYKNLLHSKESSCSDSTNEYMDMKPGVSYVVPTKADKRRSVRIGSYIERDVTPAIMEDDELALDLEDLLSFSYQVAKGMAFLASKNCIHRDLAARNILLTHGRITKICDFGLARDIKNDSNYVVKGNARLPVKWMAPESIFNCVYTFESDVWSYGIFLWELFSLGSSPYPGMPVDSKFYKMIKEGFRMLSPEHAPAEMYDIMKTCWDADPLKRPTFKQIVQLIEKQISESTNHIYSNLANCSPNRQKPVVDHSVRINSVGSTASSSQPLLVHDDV
EGFR wild type, sequence (P00533 25-1210): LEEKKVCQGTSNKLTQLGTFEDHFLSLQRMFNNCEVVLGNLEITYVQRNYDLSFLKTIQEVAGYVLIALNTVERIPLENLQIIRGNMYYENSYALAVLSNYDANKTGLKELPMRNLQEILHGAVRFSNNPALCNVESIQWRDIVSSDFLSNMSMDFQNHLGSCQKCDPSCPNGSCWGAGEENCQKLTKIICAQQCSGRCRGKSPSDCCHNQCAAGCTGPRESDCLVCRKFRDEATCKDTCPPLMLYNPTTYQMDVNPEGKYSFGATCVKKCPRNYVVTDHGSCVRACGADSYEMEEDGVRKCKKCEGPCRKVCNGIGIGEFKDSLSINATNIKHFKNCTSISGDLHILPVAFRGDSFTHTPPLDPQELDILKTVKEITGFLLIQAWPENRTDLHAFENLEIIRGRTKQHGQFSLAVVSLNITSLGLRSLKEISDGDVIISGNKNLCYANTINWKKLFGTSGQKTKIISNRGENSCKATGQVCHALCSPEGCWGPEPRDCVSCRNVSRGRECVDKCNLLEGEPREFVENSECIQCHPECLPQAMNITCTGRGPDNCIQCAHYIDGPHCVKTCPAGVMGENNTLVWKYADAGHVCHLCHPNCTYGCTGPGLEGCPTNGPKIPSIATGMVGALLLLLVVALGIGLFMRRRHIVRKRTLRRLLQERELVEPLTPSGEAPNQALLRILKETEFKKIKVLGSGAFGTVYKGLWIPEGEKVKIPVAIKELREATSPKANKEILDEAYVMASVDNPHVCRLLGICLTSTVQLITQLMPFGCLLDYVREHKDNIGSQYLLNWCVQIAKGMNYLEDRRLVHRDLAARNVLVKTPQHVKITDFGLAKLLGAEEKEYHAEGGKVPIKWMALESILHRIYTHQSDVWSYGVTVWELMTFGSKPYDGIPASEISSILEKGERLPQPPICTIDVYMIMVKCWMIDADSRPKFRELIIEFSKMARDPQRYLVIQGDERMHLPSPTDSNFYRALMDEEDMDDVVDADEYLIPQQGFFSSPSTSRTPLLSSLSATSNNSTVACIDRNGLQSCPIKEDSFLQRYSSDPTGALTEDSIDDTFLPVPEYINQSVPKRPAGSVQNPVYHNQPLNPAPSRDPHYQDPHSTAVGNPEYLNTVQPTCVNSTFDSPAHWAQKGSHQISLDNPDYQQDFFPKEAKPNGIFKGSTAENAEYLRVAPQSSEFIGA
MET, sequence (P08581 25-1390): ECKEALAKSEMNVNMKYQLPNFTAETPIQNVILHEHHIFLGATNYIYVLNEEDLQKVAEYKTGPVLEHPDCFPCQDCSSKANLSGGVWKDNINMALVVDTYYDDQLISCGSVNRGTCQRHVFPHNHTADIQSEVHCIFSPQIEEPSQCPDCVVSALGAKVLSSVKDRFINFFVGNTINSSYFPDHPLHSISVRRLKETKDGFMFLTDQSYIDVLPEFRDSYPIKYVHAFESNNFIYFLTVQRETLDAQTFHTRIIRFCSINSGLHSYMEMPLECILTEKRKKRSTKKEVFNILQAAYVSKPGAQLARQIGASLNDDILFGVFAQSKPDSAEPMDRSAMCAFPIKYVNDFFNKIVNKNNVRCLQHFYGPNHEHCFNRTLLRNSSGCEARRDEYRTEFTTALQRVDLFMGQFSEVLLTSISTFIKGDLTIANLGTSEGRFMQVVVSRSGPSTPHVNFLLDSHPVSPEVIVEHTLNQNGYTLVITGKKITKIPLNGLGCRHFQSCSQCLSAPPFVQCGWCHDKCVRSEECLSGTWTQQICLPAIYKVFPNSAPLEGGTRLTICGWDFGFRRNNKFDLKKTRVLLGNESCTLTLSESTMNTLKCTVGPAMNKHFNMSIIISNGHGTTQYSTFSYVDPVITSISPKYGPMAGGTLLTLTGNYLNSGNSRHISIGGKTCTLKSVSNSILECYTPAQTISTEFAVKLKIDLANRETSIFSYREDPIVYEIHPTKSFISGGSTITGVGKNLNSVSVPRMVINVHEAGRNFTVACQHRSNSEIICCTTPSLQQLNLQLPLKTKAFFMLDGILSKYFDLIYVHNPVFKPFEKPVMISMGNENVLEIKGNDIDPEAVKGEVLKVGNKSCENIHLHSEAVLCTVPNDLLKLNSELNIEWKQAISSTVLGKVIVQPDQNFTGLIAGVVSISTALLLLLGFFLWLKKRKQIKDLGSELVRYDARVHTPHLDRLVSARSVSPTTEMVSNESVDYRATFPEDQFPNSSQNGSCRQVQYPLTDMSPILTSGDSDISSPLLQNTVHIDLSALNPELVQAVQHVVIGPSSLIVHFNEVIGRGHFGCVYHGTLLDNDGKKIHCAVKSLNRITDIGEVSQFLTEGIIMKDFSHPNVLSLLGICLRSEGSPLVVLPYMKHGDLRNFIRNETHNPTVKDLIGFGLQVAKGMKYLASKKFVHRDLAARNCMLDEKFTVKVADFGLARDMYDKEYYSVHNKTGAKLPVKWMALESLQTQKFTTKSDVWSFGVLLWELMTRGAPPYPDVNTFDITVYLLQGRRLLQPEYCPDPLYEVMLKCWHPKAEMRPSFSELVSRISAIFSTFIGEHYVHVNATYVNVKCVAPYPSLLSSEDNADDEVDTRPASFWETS

Row | SMILES | IC50 (EGFR L858R mutant type) [µM] | IC50 [1] [µM] | IC50 (EGFR wild type) [µM] | The kinase activity inhibitory rate (%) by the tested compounds at 10 μM MET (MET) [%] | The kinase activity inhibitory rate (%) by the tested compounds at 10 μM c-KIT (c-KIT) [%] | IC50 [2] [nM] | IC50 [3] [nM] | IC50 [4] [nM] | IC50 [5] [nM] | IC50 [6] [nM] | IC50 [7] [µM] | IC50 [8] [µM] | IC50 [9] [µM] | IC50 [10] [µM] | IC50 [11] [µM] | IC50 [12] [µM]
1 | CC(C)n1c(Nc2ccccc2)nc2cnc(Nc3ccc(C(=O)NN4CCN(C)CC4)cc3)nc21 [Compound 8-1] | 0.008 | 0.09 | 0.003 | 83 | 26 | 89 | 2130 | 2060 | 1080 | > 10000 | 5.73 | > 10 | 6.8 | > 10 | 3.02 | 2.06
2 | CC(C)n1c(NC2CCCCC2)nc2cnc(Nc3ccc(N4CCN(C)CC4)cc3)nc21 [Compounds 8-30] | 0.005 | 0.228 | 0.015 | 0 | 0 | 7960 | 4460 | > 10000 | 5760 | > 10000 | > 10 | 4.22 | 5.47 | > 10 | > 10 | > 10
3 | C=CC(=O)Nc1cccc(Nc2ncc3nc(Nc4ccccc4)n(C(C)C)c3n2)c1 [Compounds 8-38] | 0.0006 | 0.037 | 0.002 | 74 | 63 | 730 | 1680 | 280 | 268 | 443 | > 10 | 0.37 | 1.79 | 2.9 | > 10 | 0.179
4 | CC(C)n1c(Nc2ccccc2)nc2cnc(Nc3ccc(N4CCN(C)CC4)cc3)nc21 [Compounds 8-10] | 0.005 | 0.046 | 0.005 | 64 | 3 | 102 | 226 | 700 | 106 | 1090 | > 10 | 6.06 | > 1 | 4.8 | 1.49 | 1.58
5 | CN1CCN(c2ccc(Nc3ncc4nc(Nc5ccccc5)[nH]c4n3)cc2)CC1 [Compounds 8-25] | 0.005 | 0.458 | 0.029 | 0 | 8 | 7900 | 9990 | > 10000 | > 10000 | > 10000 | > 10 | > 10 | 5.35 | > 10 | > 10 | > 10
6 | COc1ccc(Nc2nc3cnc(Nc4ccc(N5CCN(C)CC5)cc4)nc3n2C(C)C)cc1 [Compounds 8-18] | 0.005 | 0.057 | 0.03 | 7 | 76 | 183 | 2120 | 3170 | 1220 | 6290 | > 10 | 4 | 1.52 | > 10 | 6.46 | 6.35
7 | CN1CCN(c2ccc(Nc3ncc4nc(Nc5ccccc5)n(C5CC5)c4n3)cc2)CC1 [Compounds 8-23] | 0.002 | 0.041 | 0.007 | 1 | 26 | 241 | 6810 | 5220 | 5200 | > 10000 | > 10 | > 10 | 2.79 | > 10 | 3.18 | 7.04
8 | CC(C)n1c(Nc2cccc(Br)c2)nc2cnc(Nc3ccc(N4CCN(C)CC4)cc3)nc21 [Compounds 8-11] | 0.004 | 0.005 | 0.007 | 93 | 67 | 3760 | 575 | 1190 | 366 | 1680 | > 10 | 1.96 | > 1 | 11.2 | 1.39 | 7.67
9 | CC(C)n1c(Nc2ccc(C(F)(F)F)cc2)nc2cnc(Nc3ccc(N4CCN(C)CC4)cc3)nc21 [Compounds 8-27] | 0.005 | 0.054 | 0.034 | 36 | 93 | 88 | 1180 | 1960 | 777 | > 1000 | 2.6 | > 1 | 6.11 | > 1 | 9.79 | 2.35
